Test results published in PubChem BioAssay (NCI).
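GI50: concentration for 50% inhibition of growth. TGI marks complete inhibition of growth.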

How the values were obtained:
Assay in all cases: NCI anticancer screen, dose series, 384-well format
CAKI-1 renal = test system: CAKI-1 renal
NCI-H460 NSCLC = test system: NCI-H460 NSCLC
UACC-62 melanoma = test system: UACC-62 melanoma
BT-549 breast = test system: BT-549 breast
HCT-116 colon = test system: HCT-116 colon
OVCAR-8 ovarian = test system: OVCAR-8 ovarian
ACHN renal = test system: ACHN renal
A549 NSCLC = test system: A549 NSCLC
HCT-15 colon = test system: HCT-15 colon
M14 melanoma = test system: M14 melanoma
MDA-MB-435 melanoma = test system: MDA-MB-435 melanoma
U251 glioblastoma = test system: U251 glioblastoma
T-47D breast = test system: T-47D breast
DU-145 prostate = test system: DU-145 prostate
SK-MEL-28 melanoma = test system: SK-MEL-28 melanoma
786-0 renal = test system: 786-0 renal
NCI-H522 lung = test system: NCI-H522 lung
SK-MEL-5 melanoma = test system: SK-MEL-5 melanoma
K-562 leukemia = test system: K-562 leukemia
UACC-257 melanoma = test system: UACC-257 melanoma
SW-620 colon = test system: SW-620 colon
SN12C renal = test system: SN12C renal
HL-60(TB) leukemia = test system: HL-60(TB) leukemia
HOP-62 NSCLC = test system: HOP-62 NSCLC
OVCAR-4 ovarian = test system: OVCAR-4 ovarian
A498 renal = test system: A498 renal
RPMI-8226 leukemia = test system: RPMI-8226 leukemia
COLO 205 colon = test system: COLO 205 colon
HOP-92 NSCLC = test system: HOP-92 NSCLC
IGROV1 ovarian = test system: IGROV1 ovarian
TK-10 renal = test system: TK-10 renal
MCF7 breast = test system: MCF7 breast
NCI-H322M lung = test system: NCI-H322M lung
OVCAR-3 ovarian = test system: OVCAR-3 ovarian
SNB-75 CNS = test system: SNB-75 CNS
PC-3 prostate = test system: PC-3 prostate
MDA-MB-468 breast = test system: MDA-MB-468 breast
SR leukemia = test system: SR leukemia
EKVX NSCLC = test system: EKVX NSCLC
SF-539 CNS = test system: SF-539 CNS
MOLT-4 leukemia = test system: MOLT-4 leukemia
MDA-MB-231 breast = test system: MDA-MB-231 breast
OVCAR-5 ovarian = test system: OVCAR-5 ovarian
NCI-H226 lung = test system: NCI-H226 lung
MALME-3M melanoma = test system: MALME-3M melanoma
SF-268 CNS = test system: SF-268 CNS
HT29 colon = test system: HT29 colon
SK-OV-3 ovarian = test system: SK-OV-3 ovarian

Structure (SMILES): NC(=O)[C@@H](CC1CC1)[C@@H](CCC(F)(F)F)C(=O)N[C@H]1N=C(c2ccccc2)c2cccc(F)c2NC1=O
- GI50 (CAKI-1 renal): 15 µM
- TGI (CAKI-1 renal): 36.8 µM
- GI50 (NCI-H460 NSCLC): 11.6 µM
- TGI (NCI-H460 NSCLC): > 48.4 µM
- GI50 (UACC-62 melanoma): 14.7 µM
- TGI (UACC-62 melanoma): 28.7 µM
- GI50 (BT-549 breast): 17.8 µM
- TGI (BT-549 breast): 35.2 µM
- GI50 (HCT-116 colon): 10.5 µM
- TGI (HCT-116 colon): 26.1 µM
- GI50 (OVCAR-8 ovarian): 16 µM
- TGI (OVCAR-8 ovarian): 33.5 µM
- GI50 (ACHN renal): 20.8 µM
- TGI (ACHN renal): > 64.5 µM
- GI50 (A549 NSCLC): 15.7 µM
- TGI (A549 NSCLC): 49.4 µM
- GI50 (HCT-15 colon): > 65.9 µM
- TGI (HCT-15 colon): > 100 µM
- GI50 (M14 melanoma): 18.5 µM
- TGI (M14 melanoma): 43.3 µM
- GI50 (MDA-MB-435 melanoma): 19.2 µM
- TGI (MDA-MB-435 melanoma): 43.7 µM
- GI50 (U251 glioblastoma): 17.7 µM
- TGI (U251 glioblastoma): 34 µM
- GI50 (T-47D breast): 1.94 µM
- TGI (T-47D breast): 17.7 µM
- GI50 (DU-145 prostate): 23.7 µM
- TGI (DU-145 prostate): 66.6 µM
- GI50 (SK-MEL-28 melanoma): 17.8 µM
- TGI (SK-MEL-28 melanoma): 33.2 µM
- GI50 ([…]-0 renal): 20.3 µM
- TGI (786-0 renal): > 67.6 µM
- GI50 (NCI-H522 lung): 15.2 µM
- TGI (NCI-H522 lung): 30.5 µM
- GI50 (SK-MEL-5 melanoma): 9.41 µM
- TGI (SK-MEL-5 melanoma): 24.1 µM
- GI50 (K-562 leukemia): 7.18 µM
- TGI (K-562 leukemia): 62.6 µM
- GI50 (UACC-257 melanoma): 5.76 µM
- TGI (UACC-257 melanoma): 24.6 µM
- GI50 (SW-620 colon): 17.7 µM
- TGI (SW-620 colon): 35.1 µM
- GI50 (SN12C renal): 16.2 µM
- TGI (SN12C renal): 31.2 µM
- GI50 (HL-60(TB) leukemia): 29.7 µM
- TGI (HL-60(TB) leukemia): > 100 µM
- GI50 (HOP-62 NSCLC): 8.29 µM
- TGI (HOP-62 NSCLC): 25 µM
- GI50 (OVCAR-4 ovarian): 13.3 µM
- TGI (OVCAR-4 ovarian): 28.1 µM
- GI50 (A498 renal): 15 µM
- TGI (A498 renal): 43 µM
- GI50 (RPMI-8226 leukemia): 16.2 µM
- TGI (RPMI-8226 leukemia): 36.2 µM
- GI50 (COLO 205 colon): > 38.8 µM
- TGI (COLO 205 colon): > 60.3 µM
- GI50 (HOP-92 NSCLC): 15.5 µM
- TGI (HOP-92 NSCLC): 29.6 µM
- GI50 (IGROV1 ovarian): 16.1 µM
- TGI (IGROV1 ovarian): 40.4 µM
- GI50 (TK-10 renal): 16.5 µM
- TGI (TK-10 renal): 33 µM
- GI50 (MCF7 breast): 14.6 µM
- TGI (MCF7 breast): 29.1 µM
- GI50 (NCI-H322M lung): 12.4 µM
- TGI (NCI-H322M lung): 40.6 µM
- GI50 (OVCAR-3 ovarian): 14.4 µM
- TGI (OVCAR-3 ovarian): 29 µM
- GI50 (SNB-75 CNS): 10.7 µM
- TGI (SNB-75 CNS): 25.4 µM
- GI50 (PC-3 prostate): 17.6 µM
- TGI (PC-3 prostate): 34.2 µM
- TGI (MDA-MB-468 breast): 2.52 µM
- GI50 (SR leukemia): 13.9 µM
- TGI (SR leukemia): 27.1 µM
- GI50 (EKVX NSCLC): 7.61 µM
- TGI (EKVX NSCLC): 32 µM
- GI50 (SF-539 CNS): 15.4 µM
- TGI (SF-539 CNS): 29 µM
- GI50 (MOLT-4 leukemia): 7.38 µM
- TGI (MOLT-4 leukemia): 35 µM
- GI50 (MDA-MB-231 breast): 14.4 µM
- TGI (MDA-MB-231 breast): 28 µM
- GI50 (OVCAR-5 ovarian): 18.5 µM
- TGI (OVCAR-5 ovarian): 47.1 µM
- GI50 (NCI-H226 lung): 16.5 µM
- TGI (NCI-H226 lung): 30.5 µM
- GI50 (MALME-3M melanoma): 14.8 µM
- TGI (MALME-3M melanoma): 28.2 µM
- GI50 (SF-268 CNS): 7.01 µM
- TGI (SF-268 CNS): 24.3 µM
- GI50 (HT29 colon): 32.9 µM
- TGI (HT29 colon): 98 µM
- GI50 (SK-OV-3 ovarian): 14.9 µM
- TGI (SK-OV-3 ovarian): 28.5 µM
